Measured values published in patent publication US12594293B2, “Use of 6-thio-dG to treat therapy-resistant telomerasepositive pediatric brain tumors” (The Board of Regents of The University of Texas System, priority 2018, dated 2026).

How the values were obtained:
D-425 = experiment: Cell growth assay (viable cell count, trypan blue exclusion); type: cell-based, human
Method: (§1) Cell growth and sphere formation assay. After dissociating primary neurospheres by TrypLE express (Gibco), single cells were seeded in respective growth media in 6-well plates and were incubated for one week at varying concentrations (0.5 to 10 μM) of 6-thio-dG or DMSO. Fresh culture media were added every three days. Viable cell numbers were determined by trypan blue exclusion method. For sphere formation assay, MB004 single cells were seeded in limited dilution (10 cells/well in 96-well plate) and treated with DMSO or 6-thio-dG. Sphere formation was monitored by microscopy.

D-458 = experiment: as above; type: cell-based, human
Method: as §1

HFF = experiment: as above; type: cell-based, human
Method: as §1

MB004 = experiment: as above; type: cell-based, human
Method: as §1

SaOS2 = experiment: as above; type: cell-based, human
Method: as §1

CCHMC-DIPG-1 = experiment: as above; type: cell-based; details: Homo sapiens, 168 h, 6-thio-dG treatment for 7 days
Method: as §1

HeLa = experiment: as above; type: cell-based; details: Homo sapiens, 168 h, 6-thio-dG treatment for 7 days
Method: as §1

R0315-GBM = experiment: as above; type: cell-based; details: Homo sapiens, 168 h, 6-thio-dG treatment for 7 days
Method: as §1

SU-DIPG-VI = experiment: as above; type: cell-based; details: Homo sapiens, 168 h, 6-thio-dG treatment for 7 days
Method: as §1

HFF cells [1] = experiment: Immunofluorescence and telomere FISH (TIF) assay; type: cell-based, human
Method: (§2) Immunofluorescence and telomere FISH assay. Cells were fixed with 4% paraformaldehyde (PFA) for 15 minutes. Cells were then washed, permeabilized with 0.5% Triton-X-100 in PBS, blocked with 5% donkey serum and 0.3% Triton X-100 in TBS and incubated with primary antibodies against γH2A.X (1:500, rabbit), or cleaved caspase-3 (1:400, rabbit) (Cell Signaling); and/or TRF2 (1:200) (Mouse; NOVUS), as applicable, for overnight followed by TBST wash (×3) next day. Corresponding secondary antibodies were added (Alexa-Fluor 488- or 594-conjugated donkey anti-rabbit, or anti-mouse (1:500) (Jackson ImmunoResearch) for 1 hour and washed with TBS (×3) before mounting. For telomere-FISH, fixed and permeabilized cells were dehydrated with a graded ethanol concentration series, air-dried and covered with hybridization solution (70% formamide, 0.5% Blocking Reagent (Roche Diagnostics) diluted in 100 mM maleic acid and 150 mM sodium chloride, and 10 mM Tris (pH 7.5)) with 300 ng/mL PNA(CCCTAA)3-Cy3 (SEQ ID NO: 1) (Biosynthesis, USA), and denatured for 6 minutes at 84° C. followed by hybridization for at least two hours at room temperature. Cells were washed three times with 70% formamide and 10 mM Tris (pH 7.5) and three times with TBS. Finally, they were embedded with mounting media with DAPI (Vector Laboratories H1200).

HFF+hTERT cells [2] = experiment: Immunofluorescence and telomere FISH (TIF) assay; type: cell-based, human
Method: as §2

MB004 cells = experiment: Immunofluorescence and telomere FISH (TIF) assay; type: cell-based, human; details: 3 μM 2 days, then 3 days continuous or discontinuous treatment
Method: as §2

HFF cells [3] = experiment: Senescence-associated β-galactosidase assay; type: cell-based, human; details: 3 μM for 23 days
Source text: (§3) Senescence assay. Senescence-associated β-galactosidase was detected as previously described (2). Cells were observed under the microscope until the development of the blue color and the reaction was terminated. Images were captured; stained and unstained cells were counted from multiple fields to quantitate the percent senescent cells.

HFF+hTERT cells [4] = experiment: Senescence-associated β-galactosidase assay; type: cell-based, human; details: 3 μM for 23 days
Source text: as §3

[5] = tested on: ATM and ATR signaling pathways in HFF cells; experiment: Western blot of ATR-T1989 and ATM-S1981 phosphorylation; type: cell-based, human; details: 3 μM, day 1 to 3
Method: (§4) Western blot. Western blot was performed as described previously (22). Antibodies used were against ATMS1981P (R & D Systems); ATM (SIGMA); ATR-T1989P (GeneTex); and ATR, CHK1-S345P, CHK1, CHK2-T68P, CHK2, Cleaved Caspase-3, and β-actin (Cell Signaling). Bands were visualized using ECL with Azurec500 imaging system (Azure Biosystems). Band intensities were quantified using ImageJ software (Ver. 1.49u, NIH, USA).

[6] = tested on: ATM and ATR signaling pathways in HFF+hTERT cells; experiment: as above; type: cell-based, human; details: 3 μM, day 1 to 3
Method: as §4

[7] = cited from earlier work

**Q.** Which results are given for `Nc1nc2c(ncn2[C@H]2C[C@H](O)[C@@H](CO)O2)c(=S)[nH]1` [6-thio-dG, 6-thio-2′-deoxyguanosine]?
**A.** cell growth (D-425; 0.5-10 μM for one week, cells at diagnosis): effectively inhibited cell growth; IC50 (D-425; Homo sapiens, 168 h, 6-thio-dG treatment for 7 days, D-425 (primary)): 1380 nM; cell growth (D-458; 0.5-10 μM for one week, cells at recurrence): effectively inhibited cell growth; IC50 (D-458; Homo sapiens, 168 h, 6-thio-dG treatment for 7 days, D-458 (recurrence)): 1450 nM; IC50 (HFF; Homo sapiens, 168 h, 6-thio-dG treatment for 7 days, HFF (telomerase-negative)): 7900 nM; cell growth (HFF; up to 3 μM, one week): minor to no effect; relative growth (MB004; 3 μM 2 days, then 3 days continuous or discontinuous treatment): robust growth inhibition; IC50 (MB004; Homo sapiens, 168 h, 6-thio-dG treatment for 7 days, MB004): 436 nM; IC50 (SaOS2; Homo sapiens, SAOS-2, 168 h, 6-thio-dG treatment for 7 days, SaOS2 (telomerase-negative, ALT-positive)): 7580 nM; cell growth (SaOS2; up to 3 μM, one week): minor to no effect; IC50 (CCHMC-DIPG-1): 655 nM; IC50 (HeLa): 143 nM; IC50 (R0315-GBM): 1250 nM; IC50 (SU-DIPG-VI): 772 nM; TIF formation (cells with TIFs) (HFF cells [1]; 3 μM, after 2 or 5 days treatment): less than 3%; TIFs after drug withdrawal (HFF cells [1]; 3 days after drug withdrawal): completely disappeared; cells TIF-positive (HFF+hTERT cells [2]; 3 μM 2 days, then 3 days after drug withdrawal): ~31%; cells TIF-positive (HFF+hTERT cells [2]; 3 μM, 5 days continuous treatment): ~34%; number of cells with TIFs (HFF+hTERT cells [2]; 3 μM, after two days): ~25%; number of TIFs per cell and number of cells with TIFs (HFF+hTERT cells [2]; 3 μM, from day 1 to day 3): markedly increased; TIF formation (MB004 cells): sustained TIF formation; cells SA-β-gal-positive (HFF cells [3]): 7%; cells with senescence phenotype (SA-β-gal-positive) (HFF+hTERT cells [4]): 30%; ATR / ATM pathway activation [5]: activation of the ATR pathway; ATR-T1989 and ATM-S1981 phosphorylation [6]: Both ATM and ATR signaling pathways were engaged; animal deaths or weight loss ([7]; mice treated with 6-thio-dG, Mender et al.): no animal deaths or weight loss; toxic effects on hematologic counts, liver and kidney functions ([7]; mouse, in vivo): did not cause any toxic effects
